Results on 16 substances are retold here after patent US6835382B2, “Ii peptide therapeutics to enhance antigen presentation” (University of Massachusetts, priority 1996, dated 2004).

Positions of bridges follow the written chain, without caps; N, C: chain ends. Non-standard residues stand in square brackets, D forms with d. No end group written: not given here. hArg = N=C(N)NCCCC[C@H](N)C(=O)O; Cit = NC(=O)NCCC[C@H](N)C(=O)O

The test system of this assay is murine E^k MHC class II allele. In words: antigenic peptide prepulse assay, E^k allele (fixed APC prepulsed with PGCC81-104). The class given is cell-based. The settings on record: AE peptide 64 μM; for Activity in antigenic peptide prepulse assay, E^k (baseline = 1.0): prepulse 1.25 μM antigenic peptide; for Activity in antigenic peptide prepulse assay, E^k (baseline = 1.00): Table 25, prepulse 2.5 μM antigenic peptide, supernatant 1:10. How it is done: In a second type of assay, the “peptide prepulse assay”, the antigenic peptide is incubated with paraformaldehyde-fixed APC for 6 h. The APC are washed and incubated for 24 h with the AE101 series homolog and the T cell hybridoma specific for the antigenic peptide. After that incubation, an aliquot of the culture supernatant is transferred to a second culture to measure the relative degree of T hybridoma stimulation, as reflected in the effect of released interleukins on the growth of an interleukin-dependent, indicator cell line, as described above.
The two above described assays measure different aspects of the molecular mechanism of the AE101 series of peptides. In the “simultaneous assay”, AE101 series peptides are thought to induce the release of endogenously bound peptides and to permit the binding of the second, specific antigenic peptide which is relatively abundant in the culture fluid. The AE101 series peptides enhance antigenic peptide-specific T cell responses in simultaneous assays. In the “peptide prepulse” assay, the specific antigenic peptide becomes bound to MHC class II molecules on the surface of the fixed APC during the 6 h prepulse incubation. The effect of the AE101 series homologs is then thought to release that antigenic peptide, resulting in an apparent suppression of the immune response.
The AE101 series peptides are thought to contact the MHC class II molecules at a discrete site outside the antigenic peptide-binding groove. AE101 peptide binding to this “Ii-KEY” site is thought to induce a conformational change in the MHC class II molecules accelerating the dissociation of previously bound antigenic peptide. […] The AE101 series peptides thus inhibit antigenic peptide-specific T cell responses in the “peptide prepulse” assays.
Antigenic peptide-specific T cell activation was measured by the following procedure. Mitomycin C-treated A20 cells (A^dE^d) or CH27 cells APC (A^kE^k) were generated by incubating 5×10^6 cells/mL for 20 min at 37° C. with 0.025 mg/mL of mitomycin C (Sigma) in Dulbecco's Modified Eaglel's Medium (DMEM)/10 mM N-2(hydroxyethylpiperazine-N″[2-ethanesulfonic acid] (HEPES), followed by two washes with four volumes of DMEM-5% fetal calf serum (FCS), 10 mM HEPES. Fixed APC were generated by treating 1×10^6 cells/mL for 5 min with 0.5% paraformaldehyde in PBS (pH 7.2), followed by two washes with four volumes of DMEM-10% FCS, 10 mM HEPES. T cell hybridomas were irradiated 2200 rads before each assay.
The “peptide prepulse assay” was carried out under essentially the same conditions as described for the “simultaneous assay” with the following modifications. Fixed APC were first incubated for 6 h at 1×10^6 cells/mL in complete DMEM-5% FCS in 24-well microculture plates (1 mL/well) with antigenic peptide, followed by four washes with 10 volumes of DMEM-5% FCS. The cells were then exposed to varying concentrations of AE101 series peptide (64 μM, 16 μM, 4 μM, and 1 μM) for 24 h in the presence of the T cell hybridoma specific to the antigenic peptide. Interleukin release from these cultures was measured by proliferation of HT-2 cells to interleukins in supernatants transferred from the primary culture. Generally, a single dose of 64 μM of each AE101 series peptide was used. The baseline T cell response was measured by culturing T hybridoma cells with the antigenic peptide-prepulsed APC in the absence of AE101 series peptides.
Table 19: Activities of C-terminal truncation analogs of AE101 in an antigenic peptide prepulse assay. […] Paraformaldehyde-treated APC (fixed APC) expressing MHC class II molecules were incubated with antigenic peptide for 6 h (HEL106-116 for E^d and PGCC81-104 for E^k). After this incubation, the prepulsed APC were washed and cultured with T hybridoma cells and AE101 series peptides. The antigenic peptide concentration during the prepulse was 12 μM for Ed and 20 μM for E^k. The AE101 series peptide concentrations were 64 μM for E^d and 16 μM for E^k. […]

With “cyclic LRMKLPK (bridge (positions not given here); also: cyclic, ring type not given here) [AE381, “head-to-tail” cyclization from the amino-terminus to the carboxyl-terminus of AE114]”, the “Activity in antigenic peptide prepulse assay, E^k (baseline = 1.0)” value (“Activity … (baseline = 1.0)” for short) (Table 28, supernatant 1:4) was 0.28.

Consider Ac-L[hArg]LKYPK-NH2 [AE361], for which, for the setting “Table 26, supernatant 1:8”, the “Activity … (baseline = 1.0)” value is 1.00.

Take Ac-LRMKLPK (lactam 4-C) [AE382]: the “Activity … (baseline = 1.0)” value (Table 28, supernatant 1:4) is reported as 0.70.

For the substance Ac-L[hArg]MKYPK-NH2 [AE360], the “Activity … (baseline = 1.0)” value (Table 26, supernatant 1:8) is 0.94.

In the case of Ac-A[Cit]NKNPK-NH2 [AE351], the “Activity in antigenic peptide prepulse assay, E^k (baseline = 1.00)” value (from here on “Activity … (baseline = 1.00)”) is listed as 0.90.

With Ac-LR HArg MYPK-NH2 [AE365], the “Activity … (baseline = 1.0)” value (Table 26, supernatant 1:8) came to 0.42.

For Ac-LRMKNPF-NH2 [AE350], the “Activity … (baseline = 1.00)” value worked out at 0.86.

On to Ac-FK HArg MYP Cit-NH2 [AE371], for which, where the note is “Table 26, supernatant 1:8”, the “Activity … (baseline = 1.0)” value was found to be 0.99.

Ac-LRMMYP[Cit]-NH2 [AE367]: the “Activity … (baseline = 1.0)” value (Table 26, supernatant 1:8) turned out to be 0.99.

For Ac-LRLKYPN-NH2 [AE368], where the note is “Table 26, supernatant 1:8”, the “Activity … (baseline = 1.0)” value is listed as 0.92.

Consider Ac-LR HArg KYP Cit-NH2 [AE366], for which, under “Table 26, supernatant 1:8”, the “Activity … (baseline = 1.0)” value turned out to be 0.94.

For the substance Ac-LRMKYP[Cit]-NH2 [AE364], where the note is “Table 26, supernatant 1:8”, the “Activity … (baseline = 1.0)” value was 0.93.

Take Ac-LR Orn K HArg PK-NH2 [AE340]: the “Activity … (baseline = 1.00)” value was determined as 0.83.

For the substance Ac-LRMKYPN-NH2 [AE370], for the setting “Table 26, supernatant 1:8”, the “Activity … (baseline = 1.0)” value amounted to 0.58.

Ac-LK HArg KYPK-NH2 [AE363]: under “Table 26, supernatant 1:8”, the “Activity … (baseline = 1.0)” value was 0.97.

Regarding Ac-LKMKYPK-NH2 [AE362], the “Activity … (baseline = 1.0)” value (Table 26, supernatant 1:8) came to 0.91.
